Where “and” joins values, the source holds several entries; their conditions need not be identical. Equal entries are not always repeated.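 96-well plates; 48 h exposure; 5 concentrations. Endpoints by linear interpolation between flanking doses. Not reached: highest tested concentration assigned. GI50 = concentration required for 50% inhibition of growth. At the TGI there is no net growth.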
What was measured:
Test in all cases: growth of human tumour cells (NCI), 48 h
A498 renal = tested on: A498 renal
BT-549 breast = tested on: BT-549 breast
COLO 205 colon = tested on: COLO 205 colon
HOP-92 NSCLC = tested on: HOP-92 NSCLC
HT29 colon = tested on: HT29 colon
LOX IMVI melanoma = tested on: LOX IMVI melanoma
NCI-H522 lung = tested on: NCI-H522 lung
OVCAR-5 ovarian = tested on: OVCAR-5 ovarian
SF-539 CNS = tested on: SF-539 CNS
SK-MEL-28 melanoma = tested on: SK-MEL-28 melanoma

| Compound | GI50 (A498 renal) | TGI (A498 renal) | GI50 (BT-549 breast) | TGI (BT-549 breast) | GI50 (COLO 205 colon) | TGI (COLO 205 colon) | GI50 (HOP-92 NSCLC) | TGI (HOP-92 NSCLC) | GI50 (HT29 colon) | TGI (HT29 colon) | GI50 (LOX IMVI melanoma) | TGI (LOX IMVI melanoma) | GI50 (NCI-H522 lung) | TGI (NCI-H522 lung) | GI50 (OVCAR-5 ovarian) | TGI (OVCAR-5 ovarian) | GI50 (SF-539 CNS) | TGI (SF-539 CNS) | GI50 (SK-MEL-28 melanoma) | TGI (SK-MEL-28 melanoma) |
| --- | --- | --- | --- | --- | --- | --- | --- | --- | --- | --- | --- | --- | --- | --- | --- | --- | --- | --- | --- | --- |
| CCN(CC)c1ccc(C=C2C(=O)NC(=S)NC2=O)cc1 | 3.29 µM | 11.3 µM | 2.27 µM | 4.74 µM | 2.49 µM | 6.62 µM | 2.6 µM | 7.78 µM | 1.86 µM | 3.64 µM | 2.12 µM | 4.57 µM | 1.77 µM | 4.29 µM | 11.9 µM | 26.5 µM | 2.77 µM | 6.15 µM | 2.43 µM | 5.1 µM |
| CC(C)OC(=O)OCOP(=O)(OCOC(=O)OC(C)C)C1CCCN(O)C1=O (stereo not given) | 0.0732 µM | 0.867 µM | 0.468 µM | 11.7 µM | 3.71 µM | > 100 µM | 0.566 µM | 7.91 µM | 0.571 µM | > 100 µM | 2.3 µM | > 100 µM | 0.768 µM | > 100 µM | 5.25 µM | > 100 µM | 5.79 µM | > 100 µM | 0.739 µM | 7.83 µM |
| CC(=O)Nc1ccc(S(=O)(=O)N2C(=O)CCC2C(=O)Nc2ccccc2)cc1 (stereo not given) | 0.303 µM | 8.77 µM | 1.57 µM | 14.6 µM | 0.872 µM | 4.38 µM | 1.48 µM | 5.41 µM | 2.06 µM | 19.4 µM | 0.0482 µM | 13.2 µM | 0.491 µM | 6.27 µM | 3.16 µM | 20.2 µM | 0.542 µM | 4.4 µM | 1.79 µM | 18.1 µM |
| Nc1c2ccccc2nc2ccccc12 | 1.07 µM and 2.18 µM | 2.37 µM and 7.28 µM | 4.04 µM and 5.12 µM | 15.4 µM and 26.2 µM | 0.966 µM and 1.83 µM | 2.36 µM and 4.45 µM | 1.63 µM and 3.71 µM | 4.82 µM and 23.2 µM | 0.98 µM and 1.94 µM | 3.23 µM and 7.34 µM | 1.77 µM and 1.69 µM | 5.12 µM and 3.5 µM | 1.15 µM and 3.03 µM | 2.63 µM and 10.1 µM | 2.71 µM and 3.36 µM | 13.4 µM and 8.16 µM | 2.56 µM and 4.87 µM | 7.93 µM and 16.2 µM | 1.89 µM and 3.69 µM | 3.92 µM and 13.7 µM |
| CC(C)c1c(C(=O)Nc2ccccc2)c(-c2ccccc2)c(-c2ccc(F)cc2)n1CC[C@@H](O)C[C@@H](O)CC(=O)O | 0.516 µM | 4.52 µM | 15.6 µM | 41.7 µM | 24.5 µM | > 78.9 µM | 0.211 µM | 2.14 µM | 50.3 µM | > 100 µM | 3.11 µM | 22.9 µM | 3.73 µM | > 47.3 µM | 57.2 µM | > 100 µM | 25.6 µM | > 100 µM | 18.2 µM | > 100 µM |
| C=C1C(=O)O[C@H]2[C@H]1CC/C(COC(=O)NCc1ccc(Cn3c(=O)sn(CCCI)c3=O)cc1)=C\CC[C@@]1(C)O[C@@H]21 | 4.85 µM | 16.8 µM | 1.37 µM | 2.84 µM | 1.95 µM | 3.66 µM | 1.22 µM | 2.83 µM | 1.74 µM | 3.31 µM | 1.4 µM | 2.81 µM | 1.07 µM | 2.39 µM | 1.85 µM | 4.17 µM | 1.71 µM | 3.34 µM | 1.92 µM | 3.79 µM |
| Cc1cc(C)c(CNC(=O)c2cc(Cl)c3c(c2C)O[C@@](C)(C2CCC(N(C)C)CC2)O3)c(=O)[nH]1 (stereo not given in full) | 27.8 µM | > 100 µM | 42 µM | > 100 µM | > 100 µM | > 100 µM | 18.4 µM | > 100 µM | 33.8 µM | > 100 µM | 47.8 µM | > 100 µM | > 100 µM | > 100 µM | > 100 µM | > 100 µM | 57.9 µM | > 100 µM | > 100 µM | > 100 µM |
| CC/C(=C\c1ccc(N(C)C)cc1)c1ccncc1 | 4.35 µM | > 100 µM | 4.38 µM | 23.5 µM | 3.94 µM | 21.1 µM | 1.89 µM | 9.94 µM | 4.43 µM | > 100 µM | 4.05 µM | > 100 µM | 5.05 µM | > 100 µM | 33 µM | > 100 µM | 7.35 µM | 74.6 µM | > 100 µM | > 100 µM |
| N#CSc1c[nH]c2cccc(/C=C/C(=O)/C=C(O)/C=C/c3cccc4[nH]cc(SC#N)c34)c12 | 1.03 µM | 4.27 µM | 0.5 µM | 1.63 µM | 0.423 µM | 1.07 µM | 0.51 µM | 1.27 µM | 0.496 µM | 2.05 µM | 0.148 µM | 0.547 µM | 0.093 µM | 0.47 µM | 0.714 µM | 2.04 µM | 0.559 µM | 1.36 µM | 0.495 µM | 1.15 µM |
| CC1(C)CCC(c2ccc(Cl)cc2)=C(CN2CCN(c3ccc(C(=O)NS(=O)(=O)c4ccc(N[C@H](CCN5CCOCC5)CSc5ccccc5)c(S(=O)(=O)C(F)(F)F)c4)cc3)CC2)C1 | 0.0191 µM | 0.115 µM | 1.96 µM | 3.6 µM | 1.24 µM | 2.68 µM | 0.0455 µM | 0.245 µM | 1.91 µM | 3.97 µM | 1.4 µM | 2.74 µM | 1.89 µM | 5.03 µM | 1.85 µM | 4.05 µM | 2.08 µM | 4.22 µM | 1.74 µM | 3.22 µM |
| Cc1n[nH]c(C)c1-c1c(C)n[nH]c1C | 1.82 µM | 4.12 µM | 1.97 µM | 4.26 µM | 1.92 µM | 4.23 µM | 1.17 µM | 2.99 µM | 2.01 µM | 4.81 µM | 1.57 µM | 3.06 µM | 1.66 µM | 3.63 µM | 2.13 µM | 4.85 µM | 1.73 µM | 3.35 µM | 1.8 µM | 3.49 µM |
| O=C1Nc2ccc(I)cc2/C1=C/c1cc(Br)c(O)c(Br)c1 | > 16.3 µM and 20.3 µM | > 25 µM and 41.9 µM | > 17.9 µM and 8.07 µM | > 25 µM and 32.7 µM | 24.3 µM and 18.3 µM | > 25 µM and 71.4 µM | 15.6 µM | 54.7 µM | > 20.6 µM and 13.5 µM | > 25 µM and 52.5 µM | > 17.5 µM and 16.2 µM | > 79 µM | 16.2 µM and 16.5 µM | > 25 µM and 42.3 µM | > 25 µM and 21.5 µM | > 25 µM and 51.7 µM | > 20.2 µM and 14.1 µM | > 25 µM and 43.8 µM | 14.4 µM and 9.72 µM | > 72.2 µM |
